Values joined by “and” are separate entries in the source; they are usually repeats but may differ in a detail not shown here. Equal values may be shown once. “Also recorded” adds a separate entry of the source.
Columns and labels:
[1] = test system: immature dendritic cells (iDCs); experiment: Luciferase expression after electroporation of 5′-capped luciferase RNA into immature dendritic cells; format: cell-based, human; conditions: for transl. efficiency: maximal slope of curve; for transl. efficiency / relative total protein expression: m7GpppG RNA set to 1, mean ± SD; for relative total protein expression: luciferase, 72 h time course
[2] = test system: mature dendritic cells (mDCs); experiment: Luciferase expression after electroporation of 5′-capped luciferase RNA into mature dendritic cells; format: cell-based, human; conditions: for protein expression (in words) / transl. efficiency: luciferase RNA; for transl. efficiency: maximal slope of curve; for transl. efficiency / relative total protein expression: m7GpppG RNA set to 1, mean ± SD; for relative total protein expression: luciferase, 72 h time course; for time of max.: time point of maximal luciferase expression, mean ± SD
[3] = molecular target: Dcp2 (Homo sapiens, UniProt Q8IU60); conditions: background, earlier work; cited from earlier work
[4] = test system: immature dendritic cells; experiment: Luciferase activity with increasing RNA amounts (40 vs 20 pmol) in immature dendritic cells; format: cell-based; conditions: iDCs
Protocol: (§1) FIG. 3. Competition for translation between ARCA- and beta-S-ARCA(D1)-capped RNAs. Immature dendritic cells (iDCs) were electroporated with (A) increasing amounts of luciferase-encoding RNAs or (B) the indicated amounts of luciferase- and d2eGFP-encoding mRNAs, which were co-transcriptionally capped either with ARCA or beta-S-ARCA(D1) as indicated. The luciferase activity was measured after 2, 4, 8, 24, 48, and 72 hours. Shown is (A) the ratio between the luciferase activities obtained after electroporation with 40 and 20 pmol luciferase-encoding RNAs (±SD of two independent experiments), and (B) the relative luciferase activity compared to cells electroporated with only luciferase-encoding RNA without RNA (set to 1 for both ARCA- and beta-S-ARCA(D1)-capped RNA).
The results described so far indicate that the translational efficiency of an mRNA is influenced in dendritic cells by the type of the cap structure at its 5′ end. This is most likely due to differences in the efficiency by which the translational machinery is recruited to the different 5′ cap-structures. To corroborate this, we next analyzed (i) the effect of the RNA dose that is used for electroporation into immature dendritic cells, and (ii) the impact of a second RNA co-electroporated into immature dendritic cells on the protein expression. By increasing the amount of the electroporated mRNA, it is expected that at some point one or more translation factor(s) will become rate limiting in the cell, which will then restrict the amount of protein that can be synthesized from the exogenous RNA. Similarly, a second RNA will compete for the translation machinery, again influencing the translation efficiency.
Increasing amounts (20 pmol and 40 pmol) of luciferase-encoding RNAs co-transcriptionally capped with either ARCA or beta-S-ARCA(D1) were electroporated into immature dendritic cells, and the luciferase activity was measured after 2, 4, 8, 24, 48, and 72 hours. […] At this time-point, the level of luciferase protein was only about 1.6-fold as high as when half the amount of RNA was used. This ratio decreased even further 48 and 72 hours after electroporation (1.4- and 1.2-fold, respectively).

[5] = test system: CD8^+-T-cells; experiment: De novo T-cell priming after intranodal RNA immunization (tetramer staining); format: in vivo; conditions: mice; intranodal immunization day 0 and day 3; day 8
Protocol: FIG. 6. Effect of the 5′-cap structure on de novo priming of T-cells after intranodal immunization with RNA. Mice (n=5) have been immunized by intranodal injection twice […] (day 0 and day 3) with the same amount of RNA encoding a specific peptide antigen which either carries ARCA or beta-S-ARCA(D1) at the 5′-end. The frequency of tetramer positive CD8^+-cells was determined on day 8 using tetramer analysis. (A) Representative dot plots of cells from the peripheral blood and the spleen of mice which have been immunized with ARCA or beta-S-ARCA(D1) RNA (as indicated). (B) Average number of tetramer positive CD8^+-cells±standard error of the mean (in %) as measured on day 8. The significance was determined using statistical analyses (*: P<0.075).
Mice were immunized by intranodal injection of naked RNA twice […] (at day 0 and at day 3) which encodes a specific antigen with the above modifications. On day 8 the frequency of antigen-specific T-cells in peripheral blood and in the spleen was determined using tetramer staining. As shown in FIG. 6 about 5% of the CD8^+-T-cells in peripheral blood and about 6% of the CD8^+-T-cells in the spleen were tetramer positive after duplicate immunization with ARCA RNA. Using beta-S-ARCA(D1) RNA more than 12% and 13% tetramer positive CD8^+-T-cells in peripheral blood and in the spleen, respectively, were measured.

[6] = test system: immature dendritic cells (iDCs); experiment: RNA stability (half-life) by real time RT-PCR of d2eGFP RNA in immature dendritic cells; format: cell-based, human
[7] = test system: immature dendritic cells; experiment: d2eGFP expression (flow cytometry) after introduction of capped RNA into immature dendritic cells; format: cell-based, human; conditions: iDCs
[8] = test system: inguinal lymph nodes of mice; experiment: In vivo luciferase imaging after intranodal injection of luciferase RNA
Protocol: FIG. 5. Effect of the 5′-cap structure on protein expression in vivo. Mice (n=9) have been injected intranodally with the same amount of luciferase encoding RNA with ARCA or beta-S-ARCA(D1) at the 5′-end (as indicated). The luciferase activity (given in RLU) has been measured after 2, 4, 8, 24, 48, and 72 hours. (A) Images of whole animals at the indicated time points of a representative mouse, which has been injected with ARCA or beta-S-ARCA(D1) RNA are shown. (B) Mean±standard error of the mean as measured in the time course. The significance has been determined using statistical analyses (*: P<0.005 and **: P<0.02).
RNA which is administered in this way is primarily taken up by immature dendritic cells. Thus, we have investigated whether stronger protein expression is also observed in lymph nodes for beta-S-ARCA(D1) RNA compared to RNAs with other cap structures (analyzed exemplarily for ARCA which we have applied in the earlier studies). […] After uptake of the RNA by cells of the lymph nodes and translation of the encoded luciferase, protein expression was quantified by measuring luciferase activity using in vivo imaging. […] 25 min after luciferin injection, photons emitted were quantified for an integration time of 1 min. […] To quantify the bioluminescence, regions of interest (ROI) were drawn and total flux (photons/sec, p/s) in ROI was measured. […]

[9] = test system: HC11 cells; conditions: background, earlier work; cited from earlier work
[10] = test system: mature dendritic cells; experiment: d2eGFP expression (flow cytometry) after introduction of capped RNA into mature dendritic cells; format: cell-based, human; conditions: mDCs
[11] = test system: immature dendritic cells; experiment: Competition for translation: co-electroporation of d2eGFP RNA with luciferase RNA in immature dendritic cells; format: cell-based; conditions: iDCs; same amount of d2eGFP RNA; after 24, 48, and 72 hours vs luciferase RNA only
Protocol: as §1
The results described so far indicate that the translational efficiency of an mRNA is influenced in dendritic cells by the type of the cap structure at its 5′ end. This is most likely due to differences in the efficiency by which the translational machinery is recruited to the different 5′ cap-structures. To corroborate this, we next analyzed (i) the effect of the RNA dose that is used for electroporation into immature dendritic cells, and (ii) the impact of a second RNA co-electroporated into immature dendritic cells on the protein expression. […]

[12] = time point of maximal luciferase expression (functional RNA stability), mean ± SD

| Substance | total protein expression (in words) ([1]; luciferase RNA) | transl. efficiency ([1]; luciferase RNA) | relative total protein expression [1] | protein expression (in words) [2] | transl. efficiency [2] | relative total protein expression [2] | time of max. [1, 12] | time of max. [2] | translation efficiency increase in comparison to RNA with m^7GpppG ([1]; luciferase RNA) | also measured |
| --- | --- | --- | --- | --- | --- | --- | --- | --- | --- | --- |
| ApppG | do not result in any significant expression | 0.01 ± 0.00 | 0.022 ± 0.001 | do not result in protein expression | 0.01 ± 0.00 | 0.008 ± 0.000 |  |  |  |  |
| GpppG | do not result in any significant expression | 0.18 ± 0.01 | 0.221 ± 0.001 | do not result in protein expression | 0.31 ± 0.02 | 0.593 ± 0.005 | 11.5 ± 0.0 h | 27.5 ± 0.5 h |  |  |
| m2^(7,2′-O)GppspG(D1) [beta-S-ARCA(D1)] | highest total protein expression | 3.36 ± 0.09 | 13.094 ± 0.307 |  | 3.05 ± 0.14 | 3.884 ± 0.032 |  | 20.1 ± 0.1 h | about 3.4 fold | Dcp2 cleavage compared to RNA with unmodified ARCA 5′-cap [3]: 71%; signal with 40 pmol relative to 20 pmol RNA ([4]; each time-point (2-72 hours)): about twice as high; tetramer positive CD8^+-T-cells in peripheral blood [5]: more than 12%; tetramer positive CD8^+-T-cells in the spleen [5]: > 13%; expression increase (factor) compared to RNA with ARCA or post-transcriptionally modified RNA ([1]; luciferase RNA): around 3; total protein expression increase compared to RNA synthesized in presence of m^7GpppG ([1]; luciferase RNA): more than 13 fold; total protein expression increase compared to beta-S-ARCA(D2) RNA ([1]; luciferase RNA): about 2 fold; RNA stability / degradation (in words) [6]: most stable RNA; total protein expression (in words) [7]: highest total protein expression; protein expression compared to RNA with ARCA (in words) ([8]; 2, 4, 8, 24, 48, and 72 hours after intranodal application): higher at each time point; expression throughout the entire time course (integral of the curve), increase vs ARCA RNA ([8]; intranodal injection, luciferase, 2-72 hours): about 8 fold |
| m2^(7,2′-O)GppspG(D2) [beta-S-ARCA(D2)] | second best total expression | 3.53 ± 0.17 | 6.570 ± 0.075 | highest protein expression | 3.30 ± 0.03 | 4.042 ± 0.053 | 12.8 ± 0.0 h | 19.4 ± 0.1 h | about 3.5 fold | Dcp2 cleavage compared to RNA with unmodified ARCA 5′-cap [3]: 6%; translation / total expression in HC11 cells (in words) [9]: more efficiently translated in HC11 cells; also recorded: strongest total expression; total protein expression (in words) [10]: highest total protein expression |
| m2^(7,3′-O)GpppG [ARCA] |  | 2.52 ± 0.19 | 4.777 ± 0.042 |  | 2.16 ± 0.00 | 2.526 ± 0.015 | 12 h and 12.6 ± 0.1 h | 17.5 ± 0.3 h | about 2.5 fold | level of luciferase protein with 40 pmol relative to 20 pmol RNA ([4]; 24 hours after electroporation): about 1.6 fold; level of luciferase protein with 40 pmol relative to 20 pmol RNA ([4]; 48 hours after electroporation): 1.4 fold; level of luciferase protein with 40 pmol relative to 20 pmol RNA ([4]; 72 hours after electroporation): 1.2 fold; tetramer positive CD8^+-T-cells in peripheral blood [5]: about 5%; tetramer positive CD8^+-T-cells in the spleen [5]: about 6%; effect of co-electroporated d2eGFP RNA on expression of luciferase RNA [11]: decreased the expression |
| m^7GpppG [m7GpppG] |  | 1.00 ± 0.04 | 1.000 ± 0.007 |  | 1.00 ± 0.05 | 1.000 ± 0.003 | 8.1 ± 1.1 h | 16.0 ± 0.3 h |  | time of max. (hours) ([1]; time point of maximal luciferase expression (functional RNA stability), mean ± SD, listed as m^7GpppG): around 8 hours |
| m^7Gppppm^7G [m7Gppppm7G] | even lower than that of RNA which has been transcribed in presence of m^7GpppG | 0.20 ± 0.10 | 0.404 ± 0.004 | poorly translated | 0.56 ± 0.04 | 0.176 ± 0.001 | 4.9 ± 0.1 h | 6.0 ± 0.3 h |  | RNA stability / degradation (in words) [6]: most unstable RNA |
